Data: US5451411A, “Methods and compositions for the oral delivery of therapeutic agents” (University of Washington, priority 1993, dated 1995)

Tests used:
[1] = format: physicochemical
Experimental: Beads prepared in accordance with the procedure of Example 1 and containing 50 μg of ^125 I-TGF-β1 in 3.75-7.5 mg (original weight of alginate) were transferred to 15.0 mL polypropylene tubes containing 13.0 mL of PBS or of 0.1 N HCl at 37° C. In some cases, 1% BSA was added to the release media. The polypropylene tubes were gently shaken using a orbital shaker (200 rotations/minutes). At selected times, 100 μL aliquots were taken and counted for radioactivity. Care was taken so that aliquots contained no beads or bead fragments. The cumulative ^125 I-TGF-β1 released from the beads was calculated after correcting for volume changes. After 24 hours, the beads in 0.1 N HCl were transferred to PBS.
(§1) Alginate beads containing TGF-β1 and 90 kDa PAA (75:10 w/w in alginate:PAA) were prepared following the procedure of Example 1, and were acid treated for 30 minutes at 37° C. in 0.1 N HCl, as described in Example 2. The beads were then placed in PBS, pH 7.4, and the immunoreactivity of released TGF-β1 was determined by ^125 I radiolabel and ELISA, as described in Example 2. In addition, a growth inhibitory assay (GIA) was used to determine the bioactivity of the TGF-β1. The GIA measures the ability of TGF-β1 to inhibit the growth of mink lung epithelial cells (ATCC #CCL64) (T. Ikedaet al., "Human Transforming Growth Factor Type β2: Production By a Prostatic Adenocarcinoma Cell Line, Purification and Initial Characterization," Biochemistry 26:2406-2410 (1987)). The activity of the growth factor was determined by the inhibitory response of the cells to different concentrations of TGF-β1. Cell viability was based on the enzymatic cleavage by metabolically active cells of a tetrazolium salt into an orange/red formazan product. Prior to the assay cells were trypsinized and plated in a 96-well flat bottomed plate (Costar) at a concentration of 1000 cells/well. After allowing the cells to attach, samples containing the TGF-β1 and a reference standard were diluted to concentrations ranging from 1000 to 1.95 pg/ml and added to the wells. The cells were incubated for four days after which time a 100 μL solution containing 25 μg of sodium 3"-[1-(phenylamino)-carbonyl]-3,4-tetrazolium-bis(4-methoxy-6-nitro) benzene sulfonic acid hydrate (Diagnostic Chemicals, Ltd.) and 5 mM phenazine methosulfate (Aldrich) in media was added to each well. The cells were then incubated for 7 hours and the plates read on a microplate reader at an absorbance of 450 nm with a 630 nm reference filter. The specific activity of a sample was calculated relative to the reference material.

[2] = tested on: mouse anti-TGF-β1 monoclonal antibody, 1D11; experiment: ELISA measured binding activity (immunoreactivity) of TGF-β1
Experimental: The ability of released TGF-β1 from both untreated and acid treated beads (as described above) to be recognized (bound) by a monoclonal antibody was assayed by ELISA as follows. An enzyme linked immunosorbent assay (ELISA) was used to quantitate the amount of immunoreactive TGF-β1 released from the untreated (PBS) and acid treated (HCl) alginate beads. The ELISA was based on the ability of a mouse anti-TGF-β1 monoclonal antibody, 1D11 (Bristol-Myers Squibb, Seattle, WA), to bind to the TGF-β1 molecule. When the 1D11 antibody was coated on 96-well immunoassay plates it captured TGF-β1 from the applied sample and standard solutions. Captured TGF-β1 was then bound by biotinylated 1D11 antibody which in turn was bound by a horseradish peroxidase/avidin D conjugate (Vector Labs cat #A-2004). A color reaction occurred by adding a chromophore/substrate solution of 3,3',5,5'-tetramethylbenzidine in CPB containing hydrogen peroxide. The reaction was stopped with the addition of 1 N sulfuric acid and the A450 was determined by a plate reader. Concentrations of the unknown samples were quantified relative to a TGF-β1 standard curve run on the same plate.
The immunoreactivity of TGF-β1 in solution in the presence of anionic amino acids, polyanions and polycations was studied using the ELISA procedure described in Example 2. To 1 mg/mL solutions of TGF-β1 in 5 mM HCl was added from 0 to 0.14%(w/v) of glutamic acid, aspartic acid, poly-L-aspartic acid (PLAA, Mw=13 kDa), sodium carboxymethyl cellulose (Na CMC, high viscosity), or polyacrylic acid (PAA, 2, 90 or 750 kDa). The reactivity of the TGF-β1 was then determined by the ELISA procedure, as described in Example 2.
Next, the ability of the additives to […] was investigated. Alginate solutions were prepared in accordance with the procedure of Example 1, incorporating 50 μg of TGF-β1, 0-0.15% (w/v) of sodium alginate and 0.1-1.0 mg (up to 0.125% w/v) of PAA (750 kDa), PLAA (13 kDa), NaCMC high viscosity or glutamic acid. The immunoreactivity of TGF-β1 was determined by ELISA as described in Example 2.
Alginate beads were prepared according to the procedure of Example 1 incorporating 50 μg TGF-β1 and 0.1-1.0 mg of additives. […] In addition, Poly-L-Lysine (PLL;123 kDa) was incorporated as a potential polycationic competitor. The additives were incorporated at an alginate:additive w/w ratio of from 75:10 to 75:1 as indicated below in Table 3.
To further assess the effect of amount of PAA incorporation on immunoreactivity of released TGF-β1, alginate beads were prepared by incubating TGF-β1 and PAA (90 kDa) for either 5 or 60 minutes (see FIG. 7) in w/w ratios of 75:1, 75:6 and 75:10, followed by dilution, addition of alginate, and bead formation in 1% CaCl2. The beads were acid treated in 0.1 N HCl at 37° C. for 30 minutes and then incubated at 37° C. in PBS, pH 7.4.

[3] = tested on: mink lung epithelial cells (ATCC #CCL64); experiment: Growth inhibitory assay (GIA) bioactivity of released TGF-β1; format: cell-based; details: acid treated beads 75:10 w/w PAA 90 kDa; PBS pH 7.4
Experimental: as §1, with “After allowing the cells to attach, samples containing the TGF-β1 and a reference standard were diluted to concentrations ranging from 1000 to 1.95 pg/ml and added to the wells. The cells were incubated for four days after which time a 100 μL solution containing 25 μg of sodium 3"-[1-(phenylamino)-carbonyl]-3,4-tetrazolium-bis(4-methoxy-6-nitro) benzene sulfonic acid hydrate (Diagnostic Chemicals, Ltd.) and 5 mM phenazine methosulfate (Aldrich) in media was added to each well.” left out

[4] = acid treated beads 75:10 w/w PAA 90 kDa, PBS pH 7.4

Effect of hydrolysis time on ELISA measured binding activity of TGF-β1 ([2]; 0.1 N HCl, 37° C., 0.25-24 hr): no significant differences | TGF-β1 released and immunoreactive (ELISA) [2, 4]: over 80% | % Binding Activity of released TGF-β1, HCl ([2]; alginate beads acid treated in 0.1 N HCl, no additive): 14% | % Binding Activity of released TGF-β1, PBS ([2]; alginate beads not acid treated (PBS), no additive): 0% | ELISA binding activity of TGF-β1 released from beads alone, in words ([2]; beads without PAA): no binding activity | Immunoreactivity of TGF-β1, in words ([2]; released from calcium-alginate beads, in presence of alginate alone, or in presence of PAA (750 kDa)): little immunoreactivity | Immunoreactivity of TGF-β1 with alginate, in words ([2]; solution, 0.015% alginate, no additive): no immunoreactivity | % Active TGF-β1, 0% alginate ([2]; solution, % Alginate (w/v) 0): 100% | % Active TGF-β1, 0.0015% alginate ([2]; solution, % Alginate (w/v) 0.0015): 65% | % Active TGF-β1, 0.015% alginate ([2]; solution, % Alginate (w/v) 0.015): 0% | % Active TGF-β1, 0.15% alginate ([2]; solution, % Alginate (w/v) 0.15): 0%
Substance: TGF-β1: TGF-β1 (1 mg/mL in 5 mM HCl) obtained from Bristol-Myers Squibb (Seattle, WA)
Effect of acid treatment time on dissolution profiles and TGF-β1 release rates ([1]; 0.1 N HCl 37° C. 0.25-24 hr, then PBS pH 7.4): little difference | Total release of TGF-β1 (125I radiolabel) [1, 4]: 90% | TGF-β1 bioactive (GIA) [3]: more than 85%
